In data set [1] the target is T1, MUC1-CT (Homo sapiens, UniProt P15941).
T1 construct: endogenous C-terminal beta subunit (MUC1-CT) of the cleaved MUC1 precursor in intact H1975 cells; detected by western blot with anti-MUC1-CT
T1 sequence (P15941 1098-1255 limits assumed): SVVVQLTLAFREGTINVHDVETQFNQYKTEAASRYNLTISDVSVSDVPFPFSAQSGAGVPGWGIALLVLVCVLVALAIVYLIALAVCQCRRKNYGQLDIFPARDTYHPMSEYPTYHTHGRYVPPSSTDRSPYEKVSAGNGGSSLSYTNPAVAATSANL
Put plainly: cellular thermal shift assay, western blot. The data set is classed as cell-based. The settings on record: intact H1975 cells, 1 mM AICAR for 15 min, heated 3 min at 37-55 °C; stabilisation shown as curve only, no Tm; intracellular phosphorylation to ZMP possible.

Data set [2] has as its system A549. As to the kind of experiment: cells. Set-up: species or system panel of lung tumour and stromal cell lines; CellTiter-Glo luminescent cell viability, 2D monolayer, 3000 cells per well in 96-well plate, vehicle-normalised. The settings on record: Homo sapiens, A549; viability, 72 h. As for the experimental part:
(§1) For 2D monolayer cell cultures, 3000 cells were plated into each well of a white 96-well plate in three replicates. After attachment, the cells were treated with AICAR, VX-509, osimertinib, and ABT-702 alone or in combinations for 72 h. The cell viability was measured at the treatment endpoint using the CellTiter-Glo® luminescent cell viability assay kit (Promega, Cat #G7570) according to the manufacturer’s instructions. The luminescent signal was recorded as relative light units (RLU). For 3D organoid cultures, the cell viability was measured using CellTiter-Glo 3D® Cell Viability Assay (Promega, Cat #G9681) according to the manufacturer’s protocol. The relative cell viability treated with the vehicle was normalised as 1. To explore the effects of AICAR treatment on lung cancer cell lines, we performed a cell viability assay using a panel of lung cancer cell lines based on the status of EGFR mutations (Table S1). […] To understand whether AICAR’s effects are dependent upon EGFR mutations, we tested drug response in another panel of lung cancer cells with wild-type EGFR, including H358, H23, H441, A549, and H69 (Fig. 1b). The average EC50 of tested EGFR wild-type cell lines (1.31 ± 0.18 mM) was higher than that of EGFR-mutant cell lines upon AICAR treatment (p < 0.05). To examine if there was any toxicity in stromal cells, we measured AICAR treatment response in a panel of primary lung stromal cell lines, including CCD-13Lu (fibroblasts), HULEC-5A (endothelial cells), and NR8383 (macrophages). […] 3000 cells (H3255, PC9-ER, HCC827, H1650, PC9, and H1975) were plated in a 96-well plate and treated with increasing doses of AICAR (0–10 mM). The cell viability was measured three days after treatment. Values were normalised to a vehicle-treated control group. N = 3 replicates. b Cell viability assay of AICAR in EGFR wild-type lung adenocarcinoma and small cell lung cancer cell lines. 3000 cells (A549, H23, H69, H358, and H441) were plated in a 96-well plate and treated with increasing doses of AICAR (0–10 mM). The cell viability was measured three days after treatment. Values were normalised to a vehicle-treated control group. N = 3 replicates. c Cell viability assay of AICAR in multiple types of primary lung stromal cells. 3000 cells (macrophages NR8383, endothelial cells HULEC-5A, and fibroblasts CCD-13Lu) were plated in a 96-well plate and treated with increasing doses of AICAR (0–10 mM). The cell viability was measured three days after treatment. Values were normalised to a vehicle-treated control group. N = 3 replicates. d Quantification of EC50 in EGFR mutant, wild-type, and non-malignant stromal lung cells. N = 3 replicates. e Flow cytometry analysis for time-dependent apoptosis in EGFR-mutant H1975 cells treated with AICAR. H1975 cells were plated in a 24-well plate and treated with AICAR (1 mM) for 0, 4, 7, and 16 h. After treatment, the apoptotic cells were quantified by flow cytometry analysis of cells stained with Annexin-V-APC and 7AAD. N = 4 replicates. f–h Flow cytometry analysis for apoptosis in multiple cell lines treated with AICAR. EGFR-mutant PC9 (f) and EGFR wild-type A549 (g) and H23 (h) cells were plated in a 24-well plate and treated with AICAR (1 mM) and vehicle control for 7 h. After treatment, the apoptotic cells were quantified by flow cytometry analysis of cells stained with Annexin-V-APC and 7AAD. N = 4 replicates. i, j Western blotting and relative quantification for expression levels of γ-H2AX (S139), H2AX, p-p53 (S33), p53, and […]

Data set [3] concerns H1650. As to the kind of experiment: cells. Set-up: species or system panel of lung tumour and stromal cell lines; CellTiter-Glo luminescent cell viability, 2D monolayer, 3000 cells per well in 96-well plate, vehicle-normalised. The settings on record: Homo sapiens, NCI-H1650; viability, 72 h. As for the experimental part: as §1
Data set [4] relates to H1975. Put plainly: cells. Set-up: species or system panel of lung tumour and stromal cell lines; CellTiter-Glo luminescent cell viability, 2D monolayer, 3000 cells per well in 96-well plate, vehicle-normalised. The note with it: Homo sapiens, NCI-H1975; viability, 72 h. As for the experimental part: as §1
Data set [5] concerns H23. As to the kind of experiment: cells. Set-up: species or system panel of lung tumour and stromal cell lines; CellTiter-Glo luminescent cell viability, 2D monolayer, 3000 cells per well in 96-well plate, vehicle-normalised. The settings on record: Homo sapiens, NCI-H23; viability, 72 h. The protocol: as §1
Data set [6] has as its system H3255. Put plainly: cells. Also on record: species or system panel of lung tumour and stromal cell lines; CellTiter-Glo luminescent cell viability, 2D monolayer, 3000 cells per well in 96-well plate, vehicle-normalised. The note with it: Homo sapiens, NCI-H3255; viability, 72 h. As for the experimental part:
as §1

The test system of data set [7] is H358. Put plainly: cells. Set-up: species or system panel of lung tumour and stromal cell lines; CellTiter-Glo luminescent cell viability, 2D monolayer, 3000 cells per well in 96-well plate, vehicle-normalised. The note with it: Homo sapiens, NCI-H358; viability, 72 h. The protocol:
as §1

Data set [8] deals with H441. Put plainly: cells. The settings on record: Homo sapiens, NCI-H441; viability, 72 h. Also on record: species or system panel of lung tumour and stromal cell lines; CellTiter-Glo luminescent cell viability, 2D monolayer, 3000 cells per well in 96-well plate, vehicle-normalised. As for the experimental part: as §1
Data set [9] concerns H69. Put plainly: cells. Also on record: species or system panel of lung tumour and stromal cell lines; CellTiter-Glo luminescent cell viability, 2D monolayer, 3000 cells per well in 96-well plate, vehicle-normalised. The note with it: Homo sapiens, NCI-H69; viability, 72 h. The protocol:
as §1

Data set [10] concerns HCC827. As to the kind of experiment: cells. Set-up: species or system panel of lung tumour and stromal cell lines; CellTiter-Glo luminescent cell viability, 2D monolayer, 3000 cells per well in 96-well plate, vehicle-normalised. The settings on record: Homo sapiens, HCC827; viability, 72 h. As for the experimental part:
as §1

Data set [11] concerns PC9-ER. As to the kind of experiment: cells. Also on record: species or system panel of lung tumour and stromal cell lines; CellTiter-Glo luminescent cell viability, 2D monolayer, 3000 cells per well in 96-well plate, vehicle-normalised. The settings on record: Homo sapiens, PC-9/ER; viability, 72 h. The protocol:
as §1

Data set [12] has as its system PC9. As to the kind of experiment: cells. Also on record: species or system panel of lung tumour and stromal cell lines; CellTiter-Glo luminescent cell viability, 2D monolayer, 3000 cells per well in 96-well plate, vehicle-normalised. The note with it: Homo sapiens, PC-9; viability, 72 h. As for the experimental part: as §1
A short description of data set [13]: in vitro. Set-up: species or system panel of lung tumour and stromal cell lines; CellTiter-Glo luminescent cell viability, 2D monolayer, 3000 cells per well in 96-well plate, vehicle-normalised. The note with it: panel of lung tumour and stromal cell lines, EC50 (mM), viability, given as EC50. As for the experimental part:
(§2) For 2D monolayer cell cultures, 3000 cells were plated into each well of a white 96-well plate in three replicates. After attachment, the cells were treated with AICAR, VX-509, osimertinib, and ABT-702 alone or in combinations for 72 h. The cell viability was measured at the treatment endpoint using the CellTiter-Glo® luminescent cell viability assay kit (Promega, Cat #G7570) according to the manufacturer’s instructions. The luminescent signal was recorded as relative light units (RLU). For 3D organoid cultures, the cell viability was measured using CellTiter-Glo 3D® Cell Viability Assay (Promega, Cat #G9681) according to the manufacturer’s protocol. The relative cell viability treated with the vehicle was normalised as 1. To explore the effects of AICAR treatment on lung cancer cell lines, we performed a cell viability assay using a panel of lung cancer cell lines based on the status of EGFR mutations (Table S1). […] To understand whether AICAR’s effects are dependent upon EGFR mutations, we tested drug response in another panel of lung cancer cells with wild-type EGFR, including H358, H23, H441, A549, and H69 (Fig. 1b). […] To examine if there was any toxicity in stromal cells, we measured AICAR treatment response in a panel of primary lung stromal cell lines, including CCD-13Lu (fibroblasts), HULEC-5A (endothelial cells), and NR8383 (macrophages). […] The cell viability was measured three days after treatment. […] The cell viability was measured three days after treatment. […] The cell viability was measured three days after treatment. […] N = 3 replicates. d Quantification of EC50 in EGFR mutant, wild-type, and non-malignant stromal lung cells. […] After treatment, the apoptotic cells were quantified by flow cytometry analysis of cells stained with Annexin-V-APC and 7AAD. […] After treatment, the apoptotic cells were quantified by flow cytometry analysis of cells stained with Annexin-V-APC and 7AAD. N = 4 replicates. i, j Western blotting and relative quantification for expression levels of γ-H2AX (S139), H2AX, p-p53 (S33), p53, and […]

Data set [14] relates to HULEC-5A. Put plainly: in vitro. The note with it: viability, 72 h; given as EC50; inhibitor. Also on record: species or system panel of lung tumour and stromal cell lines; CellTiter-Glo luminescent cell viability, 2D monolayer, 3000 cells per well in 96-well plate, vehicle-normalised. The protocol: as §2
Data set [15] has as its system NR8383. Put plainly: in vitro. The note with it: viability, 72 h; given as EC50; inhibitor. Set-up: species or system panel of lung tumour and stromal cell lines; CellTiter-Glo luminescent cell viability, 2D monolayer, 3000 cells per well in 96-well plate, vehicle-normalised. As for the experimental part:
as §2

Take `NC(=O)c1ncn([C@@H]2O[C@H](CO)[C@@H](O)[C@H]2O)c1N` [AICAR]: the thermal stability entry in data set [1] is on record as “AICAR incubation in H1975 cells significantly increased protein stability in MUC1-CT than vehicle-treated groups”. For the same compound, the EC50 in data set [2] is 1600 µM; in data set [3], 420 µM; in [4], 298 µM; in [5] it was 1610 µM; in data set [6], 320 µM; in data set [7] it was 1280 µM. In addition, the EC50 in data set [8] worked out at 640 µM; in [9], 1440 µM; in [10], 880 µM; in data set [11] it was 410 µM; in data set [12] it was 300 µM. Besides, in data set [13], the CC50 at 72 h came out at 1.03 mM. The results for the CC50 in data set [14] and in [15] were 1450 µM and 1110 µM, respectively.

For the origin of these results see paper PMC10133251, “An intrinsic purine metabolite AICAR blocks lung tumour growth by targeting oncoprotein mucin 1” (British Journal of Cancer, 2023).
